Results from US20250197387A1, “BCL-XL DEGRADERS AND USES THEREOF” (Kymera Therapeutics, Inc., priority 2021, published 2025).
pIC50: −log10 of the molar value. Read-outs that look alike come from different tables or passages of the source.

Key:
Format in all cases: cell-based
BCL-XL = molecular target: T1, BCL-XL (Homo sapiens, UniProt Q07817); experiment: Bcl-xL ELISA degradation in MOLT-4 cells, 6 h; details: for DC50: read-out: Bcl-xL ELISA in MOLT-4 degradation 6 h: Mean external-Abs DC50
T1 construct: endogenous in cells; host or cells: MOLT-4
T1 sequence (Q07817 whole entry): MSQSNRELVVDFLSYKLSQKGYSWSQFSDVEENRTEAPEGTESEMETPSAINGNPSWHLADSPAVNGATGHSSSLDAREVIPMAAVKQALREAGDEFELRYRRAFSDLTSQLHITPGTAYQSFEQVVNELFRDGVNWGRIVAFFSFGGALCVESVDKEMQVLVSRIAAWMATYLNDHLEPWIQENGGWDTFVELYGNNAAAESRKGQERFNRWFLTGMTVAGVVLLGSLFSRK
Procedure: The letter codes for BCL-XL DC50 include: A (<0.01 μM); B (0.01-0.1 μM); C (>[…]); D (>0.5-1.0 μM); and E (>1.0 μM). The letter codes for Dmax % include A (>75%); B (50 to 75%); C (<50%).

MOLT-4 cells = experiment: CTG (CellTiter-Glo) cell viability assay, MOLT-4; details: Homo sapiens, 3 day incubation, read-out: CTG Cell Viability Assay - MOLT-4 3 day: Average external-IC50
In short: (§1)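 10,000 cells/well; 9 doses, 1:3 from 10 μM top; 0.2% DMSO; 3 d, 37 °C, 5% CO2; CTG luminescence; IC50 via 3-parameter logistic fit. Letter bins differ: Caki-2 C/D cut at 10.0 μM, MOLT-4 at 3.0 μM.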

Caki-2 cells = experiment: CTG (CellTiter-Glo) cell viability assay, Caki-2; details: Homo sapiens, 72 h, 3 day incubation, read-out: CTG Chempartner - Caki-2 3 day: Average external-IC50
In short: as §1

| SMILES | Dmax (BCL-XL) | DC50 (BCL-XL) | pIC50 (MOLT-4 cells; MOLT-4, 72 h) | pIC50 (Caki-2 cells) | pIC50 (MOLT-4 cells; 72 h) |
| --- | --- | --- | --- | --- | --- |
| Cc1ncsc1-c1ccc(CNC(=O)[C@@H]2C[C@@H](O)CN2C(=O)[C@@H](NC(=O)C2CN(c3ccc(S(=O)(=O)NC(=O)c4nc(N5CCc6cccc(C(=O)Nc7nc8ccccc8s7)c6C5)ccc4-c4cnn(CC5CCCCC5)c4C)cc3F)C2)C(C)(C)C)cc1 [I-330] | 50 to 75% | 10 to 100 nM | > 7.00 | 5.00 to 6.00 |  |
| Cc1ncsc1-c1ccc(CNC(=O)[C@@H]2C[C@@H](O)CN2C(=O)[C@@H](NC(=O)[C@H]2CCN(c3ccc(S(=O)(=O)NC(=O)c4nc(N5CCc6cccc(C(=O)Nc7nc8ccccc8s7)c6C5)ccc4-c4cnn(CC5CCCCC5)c4C)cc3)C2)C(C)(C)C)cc1 [I-359] | > 75% | < 10 nM | > 7.00 | < 5.00 |  |
| Cc1ncsc1-c1ccc(CNC(=O)[C@@H]2C[C@@H](O)CN2C(=O)[C@@H](NC(=O)C2CCN(c3ccc(S(=O)(=O)NC(=O)c4nc(N5CCc6cccc(C(=O)Nc7nc8ccccc8s7)c6C5)ccc4-c4cnn(CC5CCCCC5)c4C)c(F)c3)CC2)C(C)(C)C)cc1 [I-339] | > 75% | < 10 nM | > 7.00 | 5.00 to 6.00 |  |
| Cc1ncsc1-c1ccc([C@H](C)NC(=O)[C@@H]2C[C@@H](O)CN2C(=O)[C@H](NC(=O)CCCCCS(=O)(=O)NC(=O)c2nc(N3CCc4cccc(C(=O)Nc5nc6ccccc6s5)c4C3)ccc2-c2cnn(CC3CCCCC3)c2C)C(C)(C)CCO)cc1 [I-366] | > 75% | 100 to 500 nM | 5.52 to 6.00 | < 5.00 |  |
| Cc1ncsc1-c1ccc([C@H](C)NC(=O)[C@@H]2C[C@H](O)CN2C(=O)[C@@H](NC(=O)CCc2ccc(S(=O)(=O)NC(=O)c3nc(N4CCc5cccc(C(=O)Nc6nc7ccccc7s6)c5C4)ccc3-c3cnn(CC4CCCCC4)c3C)cc2)C(C)(C)C)cc1 [I-285] | 50 to 75% | 100 to 500 nM | 6.00 to 7.00 | 5.00 to 6.00 |  |
| Cc1cc(N(C)c2ccc(-c3cnn(CC45CC6CC(CC(C6)C4)C5)c3C)c(C(=O)NS(=O)(=O)CC3CCN(CC(=O)N[C@H](C(=O)N4C[C@H](O)C[C@H]4C(=O)N[C@@H](C)c4ccc(-c5scnc5C)cc4)C(C)(C)C)CC3)n2)nnc1Nc1nc2cccnc2s1 [I-449] | > 75% | 100 to 500 nM |  | < 5.00 | < 5.52 |
| Cc1ncsc1-c1ccc([C@H](C)NC(=O)[C@@H]2C[C@@H](O)CN2C(=O)[C@@H](NC(=O)CCCS(=O)(=O)NC(=O)c2nc(N3CCc4cccc(C(=O)Nc5nc6ccccc6s5)c4C3)ccc2-c2cnn(CC3CCCCC3)c2C)C(C)(C)C)cc1 [I-304] | > 75% | < 10 nM | 6.00 to 7.00 | 5.00 to 6.00 |  |
| C#Cc1ccc([C@H](COC)NC(=O)[C@@H]2C[C@@H](O)CN2C(=O)[C@@H](NC(=O)CCCCCS(=O)(=O)NC(=O)c2nc(N(C)c3cc(C)c(Nc4nc5ccccc5s4)nn3)ccc2-c2cnn(CC34CC5CC(CC(C5)C3)C4)c2C)C(C)(C)C)cc1 [I-476] | > 75% | < 10 nM | > 7.00 | < 5.00 |  |
| Cc1ncsc1-c1ccc([C@H](C)NC(=O)[C@@H]2C[C@@H](O)CN2C(=O)[C@@H](NC(=O)C2CCN(c3ccc(S(=O)(=O)NC(=O)c4nc(N5CCc6cccc(C(=O)Nc7nc8ccccc8s7)c6C5)ccc4-c4cnn(CC5CCCCC5)c4C)cc3CO)CC2)C(C)(C)C)cc1 [I-316] | 50 to 75% | 100 to 500 nM | 6.00 to 7.00 | < 5.00 |  |
| Cc1ncsc1-c1ccc([C@H](C)NC(=O)[C@@H]2C[C@@H](O)CN2C(=O)[C@@H](NC(=O)CCCCS(=O)(=O)NC(=O)c2nc(N3CCc4cccc(C(=O)Nc5nc6ccccc6s5)c4C3)ccc2-c2cnn(CC3CCCCC3)c2C)C(C)(C)C)cc1 [I-317] | > 75% | 10 to 100 nM | 6.00 to 7.00 | 5.00 to 6.00 |  |

The next lines start with results.

| Dmax (BCL-XL) | DC50 (BCL-XL) | pIC50 (MOLT-4 cells; MOLT-4, 72 h) | SMILES | pIC50 (Caki-2 cells) | pIC50 (MOLT-4 cells; 72 h) |
| --- | --- | --- | --- | --- | --- |
| > 75% | 100 to 500 nM | 6.00 to 7.00 | Cc1ncsc1-c1ccc([C@H](C)NC(=O)[C@@H]2C[C@@H](O)CN2C(=O)[C@@H](NC(=O)c2ccc(N3CCC(S(=O)(=O)NC(=O)c4nc(N5CCc6cccc(C(=O)Nc7nc8ccccc8s7)c6C5)ccc4-c4cnn(CC5CCCCC5)c4C)CC3)cc2)C(C)(C)C)cc1 [I-303] | 5.00 to 6.00 |  |
| 50 to 75% | > 1000 nM | < 5.52 | Cc1ncsc1-c1ccc([C@H](C)NC(=O)[C@@H]2C[C@@H](O)CN2C(=O)[C@@H](NC(=O)CCCCCS(=O)(=O)NC(=O)c2nc(N3CCc4cccc(C(=O)Nc5nc6ccccc6s5)c4C3)ccc2-c2cnn(CC3CCCCC3)c2C)C(C)(C)CCOP(=O)(O)O)cc1 [I-415] | < 5.00 |  |
| > 75% | < 10 nM | > 7.00 | C#Cc1ccc([C@H](C)NC(=O)[C@@H]2C[C@@H](O)CN2C(=O)[C@@H](NC(=O)C2CN(c3ccc(S(=O)(=O)NC(=O)c4nc(N(C)c5cc(C)c(Nc6nc7ccccc7s6)nn5)ccc4-c4cnn(CC56CC7CC(CC(C7)C5)C6)c4C)cc3)C2)C(C)(C)C)cc1 [I-438] | < 5.00 |  |
| > 75% | 10 to 100 nM | 5.52 to 6.00 | Cc1ncsc1-c1ccc(CNC(=O)[C@@H]2C[C@@H](O)CN2C(=O)[C@@H](NC(=O)C2CN(CCCS(=O)(=O)NC(=O)c3nc(N4CCc5cccc(C(=O)Nc6nc7ccccc7s6)c5C4)ccc3-c3cnn(CC4CCCCC4)c3C)C2)C(C)(C)C)cc1 [I-421] | < 5.00 |  |
| > 75% | 10 to 100 nM | > 7.00 | Cc1ncsc1-c1ccc([C@H](C)NC(=O)[C@@H]2C[C@@H](O)CN2C(=O)[C@@H](NC(=O)C2CCN(c3ccc(S(=O)(=O)NC(=O)c4nc(N5CCCc6c5nnc(Nc5nc7ccccc7s5)c6C)ccc4-c4cnn(CC5CCCCC5)c4C)cc3)CC2)C(C)(C)C)cc1 [I-310] | < 5.00 |  |
| > 75% | < 10 nM | 5.52 to 6.00 | Cc1ncsc1-c1ccc([C@H](CO)NC(=O)[C@@H]2C[C@@H](O)CN2C(=O)[C@@H](NC(=O)CCNCCS(=O)(=O)NC(=O)c2nc(N3CCc4cccc(C(=O)Nc5nc6cccnc6s5)c4C3)ccc2-c2cnn(CC3CCCCC3)c2C)C(C)(C)C)cc1 [I-377] | < 5.00 |  |
| > 75% | 10 to 100 nM | 6.00 to 7.00 | Cc1ncsc1-c1ccc(CNC(=O)[C@@H]2C[C@@H](O)CN2C(=O)[C@@H](NC(=O)CCc2cc(F)c(S(=O)(=O)NC(=O)c3nc(N4CCc5cccc(C(=O)Nc6nc7ccccc7s6)c5C4)ccc3-c3cnn(CC4CCCCC4)c3C)c(F)c2)C(C)(C)C)cc1 [I-347] | < 5.00 |  |
| > 75% | < 10 nM | > 7.00 | Cc1ncsc1-c1ccc([C@H](C)NC(=O)[C@@H]2C[C@@H](O)CN2C(=O)[C@@H](NC(=O)CCCCCS(=O)(=O)NC(=O)c2nc(N3CCc4cccc(C(=O)Nc5nc6c(F)cccc6s5)c4C3)ccc2-c2cnn(CC3CCCCC3)c2C)C(C)(C)C)cc1 [I-459] | < 5.00 |  |
| > 75% | < 10 nM | > 7.00 | Cc1ncsc1-c1ccc(CNC(=O)[C@@H]2C[C@@H](O)CN2C(=O)[C@@H](NC(=O)CCCc2cccc(S(=O)(=O)NC(=O)c3nc(N4CCc5cccc(C(=O)Nc6nc7ccccc7s6)c5C4)ccc3-c3cnn(CC4CCCCC4)c3C)c2)C(C)(C)C)cc1 [I-337] | < 5.00 |  |
| > 75% | 500 to 1000 nM | 5.52 to 6.00 | Cc1cc(N(C)c2ccc(-c3cnn(CC4CCCCC4)c3C)c(C(=O)NS(=O)(=O)CCCCCC(=O)N[C@H](C(=O)N3C[C@H](O)C[C@H]3C(=O)N[C@@H](C)c3ccc(-c4scnc4C)cc3)C(C)(C)C)n2)nnc1Nc1nc2cccnc2s1 [I-436] | < 5.00 |  |
| > 75% | 100 to 500 nM | 6.00 to 7.00 | C#Cc1ccc(CNC(=O)[C@@H]2C[C@@H](O)CN2C(=O)[C@H](NC(=O)CCCCCS(=O)(=O)NC(=O)c2nc(N3CCc4cccc(C(=O)Nc5nc6ccccc6s5)c4C3)ccc2-c2cnn(CC3CCCCC3)c2C)C(C)(C)CCOP(=O)(O)O)cc1 [I-418] | < 5.00 |  |
| 50 to 75% | 100 to 500 nM | 5.52 to 6.00 | Cc1ncsc1-c1ccc([C@H](C)NC(=O)[C@@H]2C[C@@H](O)CN2C(=O)[C@@H](NC(=O)CCCCCS(=O)(=O)NC(=O)c2nc(N3CCc4cccc(C(=O)Nc5nc6ccccc6s5)c4C3)ccc2-c2cccc(OC(C)C)c2C)C(C)(C)C)cc1 [I-309] | 5.00 to 6.00 |  |
